{"source": "patent US8257931B2", "about": "(President and Fellows of Harvard College, priority 2005, dated 2012)", "key": {"[1]": {"test_system": "A549 and HT29 cell lines", "assay": "Alamar Blue growth inhibition, statements covering both A549 and HT29", "type": "cell-based, human", "details": "for GI50: Homo sapiens", "method": "(§1) Adherent human solid tumor cells were plated and maintained for 3 days in the presence of increasing concentration of the compounds, and cell proliferation was measured by alamar blue assay, where 10% of commercially available solution is added to the cell medium and measure fluorescence in 96-well plates at wavelength of 530 nm excitation and 590 nm emission. The data calculations were carried out as previously described.\n(§2) Compounds were further tested for cell growth inhibition in a human lung cancer cell line (A549) and conlon cancer cell line (HT29). The Alamar Blue assay, which specifically measures the inhibition of cell proliferation, was used to assess the GI50's of the compounds."}, "[2]": {"test_system": "cap-dependent translation", "assay": "In vitro translation of dual luciferase reporter in rabbit reticulocyte lysate, cap-dependent Renilla luciferase", "type": "biochemical", "from_the_text": "(§3) To determine the relative effects of the compound on cap dependent and independent translation, we utilized a bicistronic mRNA construct containing the gene for Renilla luciferase under the control of the cap and the message for firefly luciferase under the control of the cricket paralysis virus IRES (FIG. 2A). […] A dicistronic reporter construct containing the Renilla reniformis luciferase sequence after the 5′ UTR followed by the CrPV IRES and the firefly luciferase sequence was used to build a reporter construct plasmid. The reporter construct plasmid was linearized with BamHI and transcribed in vitro with an ARCA cap using the mMessage Machine T7 Ultra Kit (Ambion). In vitro translation reactions were carried out using Red Nova reticulocyte lysate (Novagen) with 2 mM magnesium acetate and […] potassium acetate, incubated at 30 degrees C. for 90 minutes. Translation of reporter genes was measured using the Dual-Glo luciferase assay (Promega) in a Wallac Victor^2 plate reader.\n(§4) In addition to structurally characterizing the binding of our hit compounds, biological activities of the compounds was evaluated. […] To test this hypothesis in vitro, a translation assay in rabbit reticulocyte lysate was carried out. A dicistronic reporter construct containing a cap-dependent Renilla luciferase and a cricket paralysis virus IRES driven firefly luciferase was utilized to measure the relative affect of a compound on both translation mechanisms.\n(§5) A functional cell free assay determined the relative effects of the compounds on cap- and IRES-dependent translations. This assay involved the in vitro translation of bicistronic mRNA reporter construct encoding for renilla luciferase in a cap-dependent and for firefly luciferase in a cap independent manner, the later driven by cricket paralysis virus IRES."}, "[3]": {"target": "T1, eIF4E/eIF4G interaction (Mus musculus, UniProt P63073)", "T1 construct": "made in house; host or cells: E. coli", "T1 sequence (P63073 whole entry)": "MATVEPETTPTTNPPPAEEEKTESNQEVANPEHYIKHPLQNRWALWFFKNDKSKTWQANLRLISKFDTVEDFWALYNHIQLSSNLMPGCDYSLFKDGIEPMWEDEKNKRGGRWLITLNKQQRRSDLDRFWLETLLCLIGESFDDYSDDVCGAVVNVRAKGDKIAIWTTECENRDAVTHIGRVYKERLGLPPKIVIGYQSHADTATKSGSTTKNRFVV", "assay": "Fluorescence polarization assay: binding of fluorescein-labeled eIF4G peptide to eIF4E", "design": "species or system murine", "details": "for IC50: triplicate, SD<±10%, read-out: IC50 (μM) (4E/4G FP)", "method": "We adapted this assay to a microwell plate format and used it to screen the 16,000 compound Chembridge DiverSet E library. […] For screening and subsequent peptide binding assays measurements of fluorescence polarization were made using an LJL Analyst plate reader. For the screening assay a solution containing approximately 5 μM meIF4E, 60 nM labeled peptide, 0.05% bovine γ-globulin, and 2 mM DTT in a buffer composed of 50 mM sodium phosphate and 50 mM potassium chloride at pH 6.5 was used. […] The curve fitting for estimation of binding constants used equations derived by Roehrl et al.^22 Measurements of fluorescence polarization and anisotropy were made in black 384-well plates (Corning) using an Analyst plate reader (LJL Biosystems) Compounds were transferred to plates during the screening using a custom-built Seiko pin transfer robot at the Institute for Chemistry and Cell Biology (ICCB) at Harvard Medical School.\nA fluorescence polarization (FP) assay was developed to measure binding of a peptide containing the conserved eIF4E-binding motif to eIF4E.\nThe assay was adapted to a microwell plate format and used to screen a number of libraries comprised of small molecule libraries for potential eIF4E/eIF4G interaction inhibitors."}, "[4]": {"test_system": "A549 lung cancer cells", "assay": "A549 proliferation, sulforhodamine B (SRB) assay", "type": "cell-based, human", "details": "sulforhodamine B assay, triplicate", "method": "FIG. 28 is a graph showing the results of a cell proliferation assay. A549 cells, which are human lung cancer cells, are grown in plates for five days in medium containing 5% FCS and compound. The number of cells is quantified by staining with sulforhodamine B."}, "[5]": {"target": "eIF4E (Mus musculus, UniProt P63073)", "sequence (P63073 whole entry)": "as above", "assay": "FP assay competing with fluorogenic eIF4G-derived peptide (KRYDREFLLGF)", "type": "binding", "details": "for binding affinity / potency in FP assay compared with hit compound 1: relative to hit compound 1", "method": "The values indicate the average concentration needed to inhibit 50% of cell proliferation. […] A dual luciferase reporter mRNA was translated for 90 minutes at 30° C. in RedNova reticulocyte lysate (Novagen) in the presence of increasing concentrations of the compound. […] (purple) activity was measured and normalized against an untreated control reaction. The m^7GDP and emetine were used as the positive and negative controls, respectively.\nDisplacement of Nα-fluorescein tagged eIF4G-derived peptide by a competing ligand causes a large decrease in fluorescence polarization. The non-tagged version of the same eIF4G-derived peptide and DMSO were used as positive and negative control, respectively."}, "[6]": {"test_system": "HT29 colon cancer cells", "assay": "HT29 cell growth, Alamar Blue assay", "type": "cell-based", "details": "Homo sapiens, HT-29; Alamar Blue assay", "method": "as §1\nMed. Chem. Lett. 14: 2547-50, 2004. […] .\nas §2"}, "[7]": {"test_system": "human lung cancer cell line (A549)", "assay": "A549 cell growth inhibition, Alamar Blue assay", "type": "cell-based", "method": "as §1, §2"}, "[8]": {"test_system": "IRES driven translation", "assay": "In vitro translation of dual luciferase reporter in rabbit reticulocyte lysate, CrPV IRES driven firefly luciferase", "type": "biochemical", "from_the_text": "as §3, §4, §5"}, "[9]": {"details": "HT29 or A549, at least one, read-out: GI50 in at least one cell line"}, "[10]": {"details": "HT29 and A549, both, read-out: GI50 in both cell lines"}, "[11]": {"details": "Homo sapiens, A549, Table 1 of b347"}}, "note": "Entries after “also recorded” stand apart in the source; their conditions may differ. Read-outs that look alike come from different tables or passages of the source."}
{"smiles": "O=C(O)C(Cc1ccccc1[N+](=O)[O-])=NNc1nc(-c2ccc3ccccc3c2)cs1", "note": "[4c, 2-[(4-Naphthalen-2-yl-thiazol-2-yl)-hydrazono]-3-(2-nitro-phenyl)-propionic acid]", "values": [{"measurement": "GI50", "setting": "[1]; [9]", "value": "< 10", "unit": "µM"}]}
{"smiles": "O=C(O)C(Cc1ccccc1)=NNc1nc(-c2ccccc2)cs1", "note": "[4b]", "values": [{"measurement": "cap-dependent translation (Renilla luciferase)", "setting": "[2]", "value": "Inhibition of cap-dependent translation"}, {"measurement": "IC50", "setting": "[3]; Table 1 of b280", "value": "> 600", "unit": "µM"}, {"measurement": "GI50", "setting": "[4]; Table 1", "value": 4, "unit": "µM"}]}
{"smiles": "Cn1c[n+]([C@@H]2O[C@H](COP(=O)(O)OP(=O)([O-])O)[C@@H](O)[C@H]2O)c2nc(N)[nH]c(=O)c21", "note": "[m7GDP, reference compound]", "values": [{"measurement": "cap-dependent translation (Renilla luciferase)", "setting": "[2]", "value": "specifically inhibits the cap-dependent message"}]}
{"smiles": "O=C(O)C(Cc1ccccc1[N+](=O)[O-])=NNc1nc(-c2ccc(N3CCCC3)cc2)cs1", "note": "[4i, 3-(2-Nitro-phenyl)-2-{[4-(4-pyrrolidin-1-yl-phenyl)-thiazol-2-yl]-hydrazono}-propionic acid]", "values": [{"measurement": "binding affinity / potency in FP assay compared with hit compound 1", "setting": "[5]", "value": "significantly less active"}, {"measurement": "GI50", "setting": "[1]; [10]", "value": "> 24", "unit": "µM"}]}
{"smiles": "O=C(O)C(Cc1ccccc1[N+](=O)[O-])=NNc1nc(-c2ccc(-c3ccccc3)cc2)cs1", "note": "[4f, 2-[(4-Biphenyl-4-yl-thiazol-2-yl)-hydrazono]-3-(2-nitro-phenyl)-propionic acid]", "values": [{"measurement": "GI50", "setting": "[1]; [9]", "value": "< 10", "unit": "µM"}]}
{"smiles": "O=C(O)C(Cc1ccccc1[N+](=O)[O-])=NNc1nc(-c2ccc3c(c2)OCCCO3)cs1", "note": "[4e, 2-{[4-(3,4-Dihydro-2H-benzo[b][1,4]dioxepin-7-yl)-thiazol-2-yl]-hydrazono}-3-(2-nitro-phenyl)-propionic acid]", "values": [{"measurement": "binding affinity / potency in FP assay compared with hit compound 1", "setting": "[5]", "value": "equipotent"}, {"measurement": "GI50", "setting": "[6]", "value": 45, "unit": "µM"}, {"measurement": "GI50", "setting": "[7]", "value": 24, "unit": "µM"}, {"measurement": "GI50", "setting": "[1]; [10]", "value": "> 24", "unit": "µM"}]}
{"smiles": "O=C(O)C(Cc1ccccc1[N+](=O)[O-])=NNc1nc(-c2ccc3c(c2)OCCO3)cs1", "note": "[4d, 2-{[4-(2,3-Dihydro-benzo[1,4]dioxin-6-yl)-thiazol-2-yl]-hydrazono}-3-(2-nitro-phenyl)-propionic acid]", "values": [{"measurement": "binding affinity / potency in FP assay compared with hit compound 1", "setting": "[5]", "value": "more than 2 fold"}, {"measurement": "GI50", "setting": "[1]; [9]", "value": "< 10", "unit": "µM"}]}
{"smiles": "O=C(O)C(Cc1ccccc1[N+](=O)[O-])=NNc1nc(-c2ccc(C3CCCCC3)cc2)cs1", "note": "[4g, 2-{[4-(4-Cyclohexyl-phenyl)-thiazol-2-yl]-hydrazono}-3-(2-nitro-phenyl)-propionic acid]", "values": [{"measurement": "potency in FP assay compared with 4f", "setting": "[5]; relative to 4f", "value": 2, "unit": "fold"}, {"measurement": "cap-dependent translation (Renilla luciferase)", "setting": "[2]", "value": "Inhibition of cap-dependent translation; also recorded: inhibit dose-dependently; also recorded: more effective"}, {"measurement": "IRES driven / cap-independent translation (firefly luciferase)", "setting": "[8]", "value": "enhance"}, {"measurement": "GI50", "setting": "[1]; [9]", "value": "< 10", "unit": "µM"}]}
{"smiles": "O=C(O)/C(Cc1ccccc1)=N/Nc1ccc(-c2ccccc2)nn1", "note": "[E-17, 3-Phenyl-2-[(6-phenyl-pyridazin-3-yl)-hydrazono]-propionic acid]", "values": [{"measurement": "IC50", "setting": "[3]; Table 1 of b347", "value": "> 600", "unit": "µM"}, {"measurement": "GI50", "setting": "[4]; [11]", "value": 7.5, "unit": "µM"}]}
{"smiles": "O=C(O)C(Cc1ccccc1)=NNc1nnc(-c2ccccc2)s1", "note": "[E-16, 3-Phenyl-2-[(5-phenyl-[1,3,4]thiadiazol-2-yl)-hydrazono]-propionic acid]", "values": [{"measurement": "IC50", "setting": "[3]; Table 1 of b347", "value": "> 600", "unit": "µM"}, {"measurement": "GI50", "setting": "[4]; [11]", "value": 9, "unit": "µM"}]}
{"smiles": "CC[C@H]1CN2CCc3cc(OC)c(OC)cc3[C@@H]2C[C@@H]1C[C@H]1NCCc2cc(OC)c(OC)cc21", "note": "[emetine, reference compound]", "values": [{"measurement": "cap-dependent translation (Renilla luciferase)", "setting": "[2]", "value": "inhibits translation of both messages equally well"}, {"measurement": "IRES driven / cap-independent translation (firefly luciferase)", "setting": "[8]", "value": "inhibits translation of both messages equally well"}]}
{"smiles": "O=C(O)C(Cc1ccccc1[N+](=O)[O-])=NNc1nc(-c2ccc(N=Nc3ccccc3)cc2)cs1", "note": "[4j]", "values": [{"measurement": "binding affinity / potency in FP assay compared with hit compound 1", "setting": "[5]", "value": "~3", "unit": "fold"}]}
{"smiles": "O=C(O)C(Cc1ccccc1[N+](=O)[O-])=NNc1nc(-c2ccccc2)cs1", "note": "[4a]", "values": [{"measurement": "binding affinity / potency in FP assay compared with hit compound 1", "setting": "[5]", "value": "dramatic decrease"}, {"measurement": "growth inhibition of both cell lines compared with hit compound 1", "setting": "[1]; HT29 and A549", "value": "dramatic decrease"}]}
{"smiles": "O=C(O)/C(Cc1ccccc1)=N/Nc1nc2ccccc2s1", "note": "[Z-11, 2-(Benzothiazol-2-yl-hydrazono)-3-phenyl-propionic acid]", "values": [{"measurement": "IC50", "setting": "[3]; Table 1 of b280", "value": "> 600", "unit": "µM"}, {"measurement": "IC50", "setting": "[3]; Table 1 of b347", "value": "> 600", "unit": "µM"}, {"measurement": "GI50", "setting": "[4]; Table 1", "value": "> 20", "unit": "µM"}, {"measurement": "GI50", "setting": "[4]; Table 1, listed as Z-4p", "value": "> 20", "unit": "µM"}]}
{"smiles": "O=C(O)C(Cc1ccccc1[N+](=O)[O-])=NNc1nc(-c2ccc(N3CCOCC3)cc2)cs1", "note": "[4h, 2-{[4-(4-Morpholin-4-yl-phenyl)-thiazol-2-yl]-hydrazono}-3-(2-nitro-phenyl)-propionic acid]", "values": [{"measurement": "binding affinity / potency in FP assay compared with hit compound 1", "setting": "[5]", "value": "significantly less active"}, {"measurement": "GI50", "setting": "[1]; [10]", "value": "> 24", "unit": "µM"}]}
{"smiles": "O=C(O)/C(Cc1ccccc1)=N/Nc1nc(-c2ccccc2)c(-c2ccccc2)s1", "note": "[Z-10, 2-[(4,5-Diphenyl-thiazol-2-yl)-hydrazono]-3-phenyl-propionic acid]", "values": [{"measurement": "IC50", "setting": "[3]; Table 1 of b280", "value": 50, "unit": "µM"}, {"measurement": "IC50", "setting": "[3]; Table 1 of b347", "value": 50, "unit": "µM"}, {"measurement": "potency compared with its E isomer", "setting": "[3]; eIF4E/4G assay", "value": "two-fold more potent"}, {"measurement": "potency compared with the initial hit", "setting": "[3]; eIF4E/4G assay", "value": "one order of magnitude more potent"}, {"measurement": "GI50", "setting": "[4]; Homo sapiens, A549, Table 1 of b280", "value": 1, "unit": "µM"}, {"measurement": "GI50", "setting": "[4]; [11]", "value": 1, "unit": "µM"}]}
